We go through twelve compounds from patent publication US8901118B2, “Compounds and methods for kinase modulation, and indications therefor” (Plexxikon Inc., priority 2010, dated 2014).

pIC50: −log10 of the molar value.

The target of this experiment is T1, CYP1A2 (Homo sapiens, UniProt P05177).
T1 sequence (P05177 1-516): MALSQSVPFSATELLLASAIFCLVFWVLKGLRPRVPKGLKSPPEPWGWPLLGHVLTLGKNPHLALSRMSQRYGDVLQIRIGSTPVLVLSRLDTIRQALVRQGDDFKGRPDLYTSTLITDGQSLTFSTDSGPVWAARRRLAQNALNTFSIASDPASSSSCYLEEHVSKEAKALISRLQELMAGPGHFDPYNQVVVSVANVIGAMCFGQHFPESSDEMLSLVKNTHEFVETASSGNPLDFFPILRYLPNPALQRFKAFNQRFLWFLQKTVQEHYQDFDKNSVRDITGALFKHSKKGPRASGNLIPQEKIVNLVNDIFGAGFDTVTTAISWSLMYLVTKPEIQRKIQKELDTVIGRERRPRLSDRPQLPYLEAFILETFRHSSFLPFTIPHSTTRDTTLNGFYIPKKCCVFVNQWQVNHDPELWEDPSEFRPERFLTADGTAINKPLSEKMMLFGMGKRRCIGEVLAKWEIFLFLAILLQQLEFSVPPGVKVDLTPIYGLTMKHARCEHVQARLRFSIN
Put plainly: CYP1A2 inhibition (fluorescent substrate CEC). The class given is in vitro ADME. The note with it: read-out: Cyp IC50 1A2. As to the method: CYP (Cytochrome P450) enzymes are the major drug metabolizing enzymes present in the liver. The inhibition of CYP enzyme activity (IC50) for each of CYP1A2, CYP2C19, CYP2C9, CYP2D6, CYP3A4(BFC) and CYP3A4(BQ) is determined for compounds, where inhibition of metabolism of a known substrate leads to a decrease in the fluorescence of the metabolized product. The fluorescence of the product is monitored as a function of compound concentration. Compounds are dissolved in DMSO to a concentration of 100 mM. These are diluted 1 μL into 82 μL of acetonitrile. An 11 μL aliquot of this solution is then added to 204 μL of cofactor mix (1.3% NADPH Regeneration system Solution A, 1.04% NADPH Regeneration system Solution B from BD Biosciences, 5% acetonitrile and 0.05% DMSO). These are then serially diluted 1:1 (160 μL to 160 μL co-factor mix) for a total of 10 points. A 10 μL aliquot of this final mixture is dispensed into 384 well assay plates and incubated for 10 minutes at 37° C. […] Assay plates are incubated at 37° C. (CYP1A2-15 min; CYP2C9-45 min; CYP2C19, 2D6 and 3A4-30 min) and read in a Tecan Safire 2 plate reader (CYP1A2, 2C19 and 3A4 409 ex/460 em; CYP2C9 and 2D6 409 ex/530 em). The signal versus compound concentration is used to determine the IC50. The enzymes and substrates for this assay are obtained from BD Biosciences.
As to `O=C(c1ccc(NC2CCC(F)(F)CC2)nc1)c1c[nH]c2ncnc(NC3CC3)c12` [Compound P-4088, [4-(cyclopropylamino)-7H-pyrrolo[2,3-d]pyrimidin-5-yl]-[6-[(4,4-difluorocyclohexyl)amino]-3-pyridyl]methanone], the pIC50 is < 5.00.
The same measure for `O=C(c1ccc(Nc2ccc(C3CC3)nc2)nc1F)c1c[nH]c2ncnc(NC3CC3)c12` [Compound P-4093, [4-(cyclopropylamino)-7H-pyrrolo[2,3-d]pyrimidin-5-yl]-[6-[(6-cyclopropyl-3-pyridyl)amino]-2-fluoro-3-pyridyl]methanone]: < 5.00.
To `Cc1ccc(Nc2ccc(C(=O)c3c[nH]c4ncnc(NC5CCCCC5)c34)c(F)n2)cn1` [Compound P-4111, [4-(cyclohexylamino)-7H-pyrrolo[2,3-d]pyrimidin-5-yl]-[2-fluoro-6-[(6-methyl-3-pyridyl)amino]-3-pyridyl]methanone] belongs < 5.00; to `Cc1ccc(Nc2ccc(C(=O)c3c[nH]c4ncnc(NCC5CC5)c34)c(F)n2)cn1` [Compound P-4113, [4-(cyclopropylmethylamino)-7H-pyrrolo[2,3-d]pyrimidin-5-yl]-[2-fluoro-6-[(6-methyl-3-pyridyl)amino]-3-pyridyl]methanone], < 5.00.
Consider `CCCNc1ncnc2[nH]cc(C(=O)c3ccc(Nc4ccc(C)nc4)nc3F)c12` [Compound P-4114, [2-fluoro-6-[(6-methyl-3-pyridyl)amino]-3-pyridyl]-[4-(propylamino)-7H-pyrrolo[2,3-d]pyrimidin-5-yl]methanone], for which the pIC50 was < 5.00.
To `CNc1ncnc2[nH]cc(C(=O)c3ccc(Nc4ccc(C)nc4)nc3F)c12` [Compound P-4115, [2-fluoro-6-[(6-methyl-3-pyridyl)amino]-3-pyridyl]-[4-(methylamino)-7H-pyrrolo[2,3-d]pyrimidin-5-yl]methanone] belongs > 5.30; to `CCc1ccc(Nc2ccc(C(=O)c3c[nH]c4ncnc(NC5CCOCC5)c34)c(F)n2)cn1` [Compound P-4116, [6-[(6-ethyl-3-pyridyl)amino]-2-fluoro-3-pyridyl]-[4-(tetrahydropyran-4-ylamino)-7H-pyrrolo[2,3-d]pyrimidin-5-yl]methanone], < 5.00.
The same measure for `CCc1ccc(Nc2ccc(C(=O)c3c[nH]c4ncnc(NC(C)C)c34)c(F)n2)cn1` [Compound P-4117, [6-[(6-ethyl-3-pyridyl)amino]-2-fluoro-3-pyridyl]-[4-(isopropylamino)-7H-pyrrolo[2,3-d]pyrimidin-5-yl]methanone]: 5.00 to 5.30; for `CCc1ccc(Nc2ccc(C(=O)c3c[nH]c4ncnc(NCC5CC5)c34)c(F)n2)cn1` [Compound P-4118, [4-(cyclopropylmethylamino)-7H-pyrrolo[2,3-d]pyrimidin-5-yl]-[6-[(6-ethyl-3-pyridyl)amino]-2-fluoro-3-pyridyl]methanone]: < 5.00; for `CCc1ccc(Nc2ccc(C(=O)c3c[nH]c4ncnc(NCCOC)c34)c(F)n2)cn1` [Compound P-4119, [6-[(6-ethyl-3-pyridyl)amino]-2-fluoro-3-pyridyl]-[4-(2-methoxyethylamino)-7H-pyrrolo[2,3-d]pyrimidin-5-yl]methanone]: < 5.00.
As for `CCc1ccc(Nc2ccc(C(=O)c3c[nH]c4ncnc(NCC(C)C)c34)c(F)n2)cn1` [Compound P-4121, [6-[(6-ethyl-3-pyridyl)amino]-2-fluoro-3-pyridyl]-[4-(isobutylamino)-7H-pyrrolo[2,3-d]pyrimidin-5-yl]methanone], the pIC50 is < 5.00.
As to `CCCNc1ncnc2[nH]cc(C(=O)c3ccc(Nc4ccc(CC)nc4)nc3F)c12` [Compound P-4122, [6-[(6-ethyl-3-pyridyl)amino]-2-fluoro-3-pyridyl]-[4-(propylamino)-7H-pyrrolo[2,3-d]pyrimidin-5-yl]methanone], the pIC50 was < 5.00.
